In patent US12077503B2, “Substituted cyclic amides and their use as herbicides” (FMC CORPORATION, priority 2015, dated 2024):

Experiments:
Assay type in all cases: in vivo
[1] = tested on: barnyardgrass (Echinochloa crus-galli); experiment: Test B flooded paddy test; conditions: Flood, 250 g ai/ha; 0 to 100 scale where 0 is no effect and 100 is complete control; 13 to 15 d
Method in brief: (§1)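 Visual ratings (0 none to 100 complete control) are relative to untreated plants, taken 13–15 d after treatment in a greenhouse. Test material went straight into floodwater standing 3 cm above the soil, kept constant, on plants at the 2-leaf stage.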

rice (Oryra sativa) = experiment: Test B flooded paddy test; conditions: Flood, 250 g ai/ha; 0 to 100 scale where 0 is no effect and 100 is complete control; 13 to 15 d
Method in brief: as §1

[2] = tested on: sedge, umbrella (small-flower umbrella sedge, Cyperus difformis); experiment: Test B flooded paddy test; conditions: Flood, 250 g ai/ha; 0 to 100 scale where 0 is no effect and 100 is complete control; 13 to 15 d
Method in brief: as §1

[3] = tested on: ducksalad (Heteranthera limosa); experiment: Test B flooded paddy test; conditions: Flood, 250 g ai/ha; 0 to 100 scale where 0 is no effect and 100 is complete control; 13 to 15 d
Method in brief: as §1

[4] = tested on: Galium (catchweed bedstraw, Galium aparine); experiment: Test A postemergence; conditions: postemergence
Method in brief: (§2)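 Each rating is a visual injury score from 0 to 100 given about 10 d after treatment, judged against untreated controls kept alongside in the greenhouse. In loam soil–sand blend, seeds got a preemergence directed soil spray, while postemergence plants were 2 to 10 cm tall at spraying.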

[5] = tested on: pigweed (Amaranthus retroflexus); experiment: Test A postemergence; conditions: postemergence
Method in brief: as §2

corn (Zea mays) = experiment: Test A postemergence; conditions: postemergence
Method in brief: as §2

[6] = tested on: giant foxtail (Setaria faberii); experiment: Test A postemergence; conditions: postemergence
Method in brief: as §2

Kochia (Kochia scoparia) [7] = experiment: Test A postemergence; conditions: postemergence
Method in brief: as §2

[8] = tested on: barnyardgrass (Echinochloa crus-galli); experiment: Test A postemergence; conditions: postemergence
Method in brief: as §2

[9] = tested on: ryegrass, Italian (Italian ryegrass, Lolium multiflorum); experiment: Test A postemergence; conditions: postemergence
Method in brief: as §2

[10] = tested on: wheat (Triticum aestivum); experiment: Test A postemergence; conditions: postemergence
Method in brief: as §2

[11] = tested on: ragweed (common ragweed, Ambrosia elatior); experiment: Test A postemergence; conditions: postemergence
Method in brief: as §2

[12] = tested on: blackgrass (Alopecurus myosuroides); experiment: Test A postemergence; conditions: postemergence
Method in brief: as §2

[13] = tested on: waterhemp (common waterhemp, Amaranthus rudis); experiment: Test C preemergence; conditions: for Plant response rating, Waterhemp: scale 0 to 100, 0 no effect, 100 complete control
Method in brief: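 Greenhouse test: seeds in a loam and sand blend treated preemergence, or seedlings at the 1- to 4-leaf stage (2 to 18 cm) in a peat, vermiculite and limestone mix treated postemergence, with test chemicals in a surfactant-containing non-phytotoxic solvent. Scored by eye at 13 to 15 d relative to controls, 0 (no effect) to 100 (complete control).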

[14] = tested on: pigweed (Amaranthus retroflexus); experiment: Test A preemergence
[15] = tested on: giant foxtail (Setaria faberii); experiment: Test A preemergence
Method in brief: as §2

Kochia (Kochia scoparia) [16] = experiment: Test A preemergence
Method in brief: as §2

[17] = tested on: barnyardgrass (Echinochloa crus-galli); experiment: Test A preemergence
Method in brief: as §2

[18] = tested on: ryegrass, Italian (Italian ryegrass, Lolium multiflorum); experiment: Test A preemergence
Method in brief: as §2

[19] = tested on: ragweed (common ragweed, Ambrosia elatior); experiment: Test A preemergence
Method in brief: as §2

[20] = 125 g ai/ha, visual rating after approx. 10 d, 0 to 100 scale (0 no effect, 100 complete control)
[21] = 500 g ai/ha, visual injury, 0 to 100 scale (0 no effect, 100 complete control), approx. 10 d
[22] = 125 g ai/ha, Preemergence, visual injury after approximately 10 d, 0 to 100 scale where 0 is no effect and 100 is complete control
[23] = 500 g ai/ha, preemergence, 0 to 100 scale, 0 = no effect, 100 = complete control
[24] = 125 g ai/ha, visual injury rating on 0 to 100 scale (0 no effect, 100 complete control), approx. 10 d
[25] = 500 g ai/ha, 0 to 100 scale, 0 no effect, 100 complete control
[26] = 125 g ai/ha, preemergence, 0 to 100 scale (0 no effect, 100 complete control)
[27] = Preemergence, 500 g ai/ha, visual injury approx. 10 d

In the case of CN1CC(c2cc(F)cc(F)c2)C(C(=O)Nc2ccc(F)c(F)c2F)C1=O (stereo not shown) [Compound 646], the “Plant response rating, Barnyardgrass” value [1] is reported as 80, the “Plant response rating, Rice” value (rice (Oryra sativa)) is reported as 25 and the “Plant response rating, Sedge, Umbrella” value [2] is reported as 0. For the same compound, the “Plant response rating, Ducksalad” value [3] was 98, the “Plant response rating, Galium” value [4, 20] was 40 and the “Plant response rating, Galium” value [4, 21] was 50. For the same compound, the “Plant response rating, Pigweed” value [5, 20] was 20, the “Plant response rating, Pigweed” value [5, 21] was 20 and the “Plant response rating, Corn” value (corn (Zea mays); [20]) was 70. For the same compound, the “Plant response rating, Corn” value (corn (Zea mays); [21]) was 80, the “Plant response rating, Foxtail, Giant” value [6, 20] was 90 and the “Plant response rating, Foxtail, Giant” value [6, 21] was 90. The “Plant response rating, Kochia” value (Kochia (Kochia scoparia) [7]; [20]) was 60, the “Plant response rating, Kochia” value (Kochia (Kochia scoparia) [7]; [21]) was 70 and the “Plant response rating, Barnyardgrass” value [8, 20] was 90. The “Plant response rating, Barnyardgrass” value [8, 21] was 90, the “Plant response rating, Ryegrass, Italian” value [9, 20] was 60 and the “Plant response rating, Ryegrass, Italian” value [9, 21] was 70. For the same compound, the “Plant response rating, Wheat” value [10, 20] was 40, the “Plant response rating, Wheat” value [10, 21] was 70 and the “Plant response rating, Ragweed” value [11, 20] was 0. The “Plant response rating, Ragweed” value [11, 21] was 40, the “Plant response rating, Blackgrass” value [12, 20] was 70 and the “Plant response rating, Blackgrass” value [12, 21] was 80. The “Plant response rating (scale of 0 to 100), Waterhemp” value ([13]; 31 g ai/ha, 0 is no effect, 100 is complete control) was 65, the “Plant response rating, Waterhemp” value ([13]; 62 g ai/ha) was 60 and the “Plant response rating, Waterhemp” value ([13]; 125 g ai/ha) was 75. The “Plant response rating, Waterhemp” value ([13]; 250 g ai/ha) was 85, the “Plant response rating, Pigweed” value [14, 22] was 60 and the “Plant response rating, Pigweed” value [14, 23] was 70. For the same compound, the “Plant response rating, Foxtail, Giant” value [15, 22] was 90, the “Plant response rating, Foxtail, Giant” value [15, 23] was 100 and the “Plant response rating, Kochia” value (Kochia (Kochia scoparia) [16]; [22]) was 60. For the same compound, the “Plant response rating, Kochia” value (Kochia (Kochia scoparia) [16]; [23]) was 70, the “Plant response rating, Barnyardgrass” value [17, 22] was 90 and the “Plant response rating, Barnyardgrass” value [17, 23] was 90. The “Plant response rating, Ryegrass, Italian” value [18, 22] was 60, the “Plant response rating, Ryegrass, Italian” value [18, 23] was 90 and the “Plant response rating, Ragweed” value [19, 22] was 60. For the same compound, the “Plant response rating, Ragweed” value [19, 23] was 70.
For CN1CC(c2cccc(OC(F)(F)C(F)F)c2)C(C(=O)Nc2ccccc2C(F)(F)F)C1=O (stereo not shown) [Compound 431], the “Plant response rating, Barnyardgrass” value [1] was 40, the “Plant response rating, Rice” value (rice (Oryra sativa)) was 25 and the “Plant response rating, Sedge, Umbrella” value [2] was 0. The “Plant response rating, Ducksalad” value [3] was 100, the “Galium plant response rating” value [4, 24] was 60 and the “Plant response rating, Galium” value [4, 25] was 60. For the same compound, the “Pigweed plant response rating” value [5, 24] was 50, the “Plant response rating, Pigweed” value [5, 25] was 60 and the “Corn plant response rating” value (corn (Zea mays); [24]) was 60. For the same compound, the “Plant response rating, Corn” value (corn (Zea mays); [25]) was 70, the “Foxtail, Giant plant response rating” value [6, 24] was 80 and the “Plant response rating, Foxtail, Giant” value [6, 25] was 90. The “Kochia plant response rating” value (Kochia (Kochia scoparia) [7]; [24]) was 40, the “Plant response rating, Kochia” value (Kochia (Kochia scoparia) [7]; [25]) was 50 and the “Barnyardgrass plant response rating” value [8, 24] was 80. The “Plant response rating, Barnyardgrass” value [8, 25] was 90, the “Ryegrass, Italian plant response rating” value [9, 24] was 60 and the “Plant response rating, Ryegrass, Italian” value [9, 25] was 40. The “Wheat plant response rating” value [10, 24] was 40, the “Plant response rating, Wheat” value [10, 25] was 60 and the “Ragweed plant response rating” value [11, 24] was 20. For the same compound, the “Plant response rating, Ragweed” value [11, 25] was 60, the “Blackgrass plant response rating” value [12, 24] was 60 and the “Plant response rating, Blackgrass” value [12, 25] was 60. For the same compound, the “Plant response rating, Waterhemp” value ([13]; 62 g ai/ha) was 75, the “Plant response rating, Waterhemp” value ([13]; 125 g ai/ha) was 85 and the “Plant response rating, Waterhemp” value ([13]; 250 g ai/ha) was 90. The “Plant response rating, Pigweed” value [14, 26] was 70, the “Pigweed plant response rating (0 to 100 scale, 0 is no effect, 100 is complete control)” value [14, 27] was 90 and the “Plant response rating, Foxtail, Giant” value [15, 26] was 90. The “Foxtail, Giant plant response rating (0 to 100 scale, 0 is no effect, 100 is complete control)” value [15, 27] was 100, the “Plant response rating, Kochia” value (Kochia (Kochia scoparia) [16]; [26]) was 30 and the “Kochia plant response rating (0 to 100 scale, 0 is no effect, 100 is complete control)” value (Kochia (Kochia scoparia) [16]; [27]) was 70. For the same compound, the “Plant response rating, Barnyardgrass” value [17, 26] was 90, the “Barnyardgrass plant response rating (0 to 100 scale, 0 is no effect, 100 is complete control)” value [17, 27] was 90 and the “Plant response rating, Ryegrass, Italian” value [18, 26] was 70. For the same compound, the “Ryegrass, Italian plant response rating (0 to 100 scale, 0 is no effect, 100 is complete control)” value [18, 27] was 70, the “Plant response rating, Ragweed” value [19, 26] was 40 and the “Ragweed plant response rating (0 to 100 scale, 0 is no effect, 100 is complete control)” value [19, 27] was 70.
